Values joined by “and” are separate entries in the source; they are usually repeats but may differ in a detail not shown here. Identical values can stand only once.
Experiments:
[1] = test system: P. aeruginosa; assay: Checkerboard assay (antibiotic potentiation); format: cell-based, Pseudomonas aeruginosa; details: for MICantibiotic: antibiotic alone
[2] = test system: A. baumannii; assay: Checkerboard assay (antibiotic potentiation); format: cell-based, Acinetobacter baumannii; details: for MICantibiotic: antibiotic alone
[3] = test system: E. coli; assay: Checkerboard assay (antibiotic potentiation); format: cell-based, Escherichia coli; details: for Interpretation: antibiotic + compound 1; for MICantibiotic + compound: antibiotic MIC with 8 µg/mL (5 µM) compound 1; for MICantibiotic: antibiotic alone; for Potentiation: of antibiotic by 8 µg/mL (5 µM) compound 1
[4] = test system: K. pneumoniae; assay: Checkerboard assay (antibiotic potentiation); format: cell-based, Klebsiella pneumoniae; details: for Interpretation: antibiotic + compound 1; for MICantibiotic + compound: antibiotic MIC with 8 µg/mL (5 µM) compound 1; for MICantibiotic: antibiotic alone; for Potentiation: of antibiotic by 8 µg/mL (5 µM) compound 1
[5] = test system: E. cloacae; assay: Checkerboard assay (antibiotic potentiation); format: cell-based, Enterobacter cloacae; details: E. cloacae 121887 (colistin-resistant)
[6] = test system: E. faecalis ATCC 29212; assay: Checkerboard assay (rifampicin potentiation); format: cell-based
Procedure: (§1) The interaction between the compounds and the antibiotics was evaluated using the fractional inhibitory concentration (FIC) index. FIC indices of ≤0.5 is synergistic, 0.5 < × ≤ 4 is additive, whereas >4 is antagonistic ([34]). […] .
(§2) The bacterial isolates were acquired from ATCC or the Canadian Ward Surveillance (CANWARD) study ([56]). CANWARD isolates were collected from infected patients admitted to participating medical centers across Canada.
(§3) The antibiotic and compounds were serially diluted 2-fold in CAMHB along the x- and y-axis, respectively, on a 96-well plate that was subsequently incubated with equal volumes of bacterial inoculum overnight at 37°C. Wells containing only media were used as negative controls, and wells containing only bacteria were used as positive controls. Synergy was measured by the FIC index, which is the summation of the individual FICs of the antibiotic and the compound. The FIC is calculated by dividing the MIC of one agent in the presence of another by the MIC of the agent alone. Turbidity was confirmed with a Molecular Devices (United States) EMax Plus microplate reader at a wavelength of 590 nm. The FBS studies were conducted by following a previously published protocol ([29], [50]). The FBS was inactivated by heating at 56°C for 30 min with constant swirling.

[7] = test system: E. faecium ATCC 27270; assay: Checkerboard assay (rifampicin potentiation); format: cell-based
Procedure: as §1, §2, §3

[8] = test system: Methicillin-resistant S. aureus ATCC 22592; assay: Checkerboard assay (rifampicin potentiation); format: cell-based; details: MRSA ATCC 22592
Procedure: as §1, §2, §3

[9] = test system: MDR Gram-negative bacteria clinical isolates; assay: Checkerboard assay, summary over strains; format: cell-based; details: of all 14 clinical isolates; number (%)
[10] = E. coli 94393 (colistin-resistant)
[11] = E. coli 94474 (colistin-resistant)
[12] = K. pneumoniae 113250 (colistin-resistant)
[13] = of rifampicin by 8 µg/mL (5 µM) compound 1
[14] = rifampicin MIC with 8 µg/mL (5 µM) compound 1

## CO[C@H]1/C=C/O[C@@]2(C)Oc3c(C)c(O)c4c(O)c(c(/C=N/N5CCN(C)CC5)c(O)c4c3C2=O)NC(=O)/C(C)=C\C=C\[C@H](C)[C@H](O)[C@@H](C)[C@@H](O)[C@@H](C)[C@H](OC(C)=O)[C@@H]1C [Rifampicin]
[1]; P. aeruginosa 259-96916, antibiotic + compound 1
  Interpretation: Synergy (FIC indices of ≤0.5 is synergistic)
[1]; P. aeruginosa 259-96916, antibiotic MIC with 8 µg/mL (5 µM) compound 1
  MICantibiotic + compound: 0.031 µg/mL
[1]; P. aeruginosa 259-96916
  MICantibiotic: 16 µg/mL
[1]; P. aeruginosa 259-96916, of antibiotic by 8 µg/mL (5 µM) compound 1
  Potentiation: ≥512-fold
[1]; P. aeruginosa 262-101856, antibiotic + compound 1
  Interpretation: Synergy (FIC indices of ≤0.5 is synergistic)
[1]; P. aeruginosa 262-101856, antibiotic MIC with 8 µg/mL (5 µM) compound 1
  MICantibiotic + compound: 2 µg/mL
[1]; P. aeruginosa 262-101856
  MICantibiotic: 512 µg/mL
[1]; P. aeruginosa 262-101856, of antibiotic by 8 µg/mL (5 µM) compound 1
  Potentiation: 256 fold
[1]; P. aeruginosa 264-105354, antibiotic + compound 1
  Interpretation: Synergy (FIC indices of ≤0.5 is synergistic)
[1]; P. aeruginosa 264-105354
  MICantibiotic: 32 µg/mL
[1]; P. aeruginosa 264-105354, of antibiotic by 8 µg/mL (5 µM) compound 1
  Potentiation: ≥256-fold
[1]; P. aeruginosa 101243 (colistin-resistant), antibiotic + compound 1
  Interpretation: Synergy (FIC indices of ≤0.5 is synergistic)
[1]; P. aeruginosa 101243 (colistin-resistant), antibiotic MIC with 8 µg/mL (5 µM) compound 1
  MICantibiotic + compound: 2 µg/mL
[1]; P. aeruginosa 101243 (colistin-resistant)
  MICantibiotic: 16 µg/mL
[1]; P. aeruginosa 101243 (colistin-resistant), of antibiotic by 8 µg/mL (5 µM) compound 1
  Potentiation: 8 fold
[1]; P. aeruginosa 114228 (colistin-resistant), antibiotic + compound 1
  Interpretation: Additive (0.5 < × ≤ 4 is additive)
[1]; P. aeruginosa 114228 (colistin-resistant), antibiotic MIC with 8 µg/mL (5 µM) compound 1
  MICantibiotic + compound: 8 µg/mL
[1]; P. aeruginosa 114228 (colistin-resistant)
  MICantibiotic: 16 µg/mL
[1]; P. aeruginosa 114228 (colistin-resistant), of antibiotic by 8 µg/mL (5 µM) compound 1
  Potentiation: 2 fold
[1]; P. aeruginosa PAO1, antibiotic + compound 1
  Interpretation: Synergy (FIC indices of ≤0.5 is synergistic)
[1]; P. aeruginosa PAO1, antibiotic + compound 3
  Interpretation: Additive (0.5 < × ≤ 4 is additive)
[1]; P. aeruginosa PAO1, antibiotic MIC with 8 µg/mL (5 µM) compound 1
  MICantibiotic + compound: 0.063 µg/mL
[1]; P. aeruginosa PAO1, antibiotic MIC with 8 µg/mL (5 µM) compound 3
  MICantibiotic + compound: 32 µg/mL
[1]; P. aeruginosa PAO1
  MICantibiotic: 16 µg/mL and 32 µg/mL
[1]; P. aeruginosa PAO1, of antibiotic by 8 µg/mL (5 µM) compound 1
  Potentiation: ≥256-fold
[1]; P. aeruginosa PAO1, of antibiotic by 8 µg/mL (5 µM) compound 3
  Potentiation: 1 fold
[2]; A. baumannii 92247 (colistin-resistant), antibiotic + compound 1
  Interpretation: Synergy (FIC indices of ≤0.5 is synergistic)
[2]; A. baumannii 92247 (colistin-resistant), antibiotic MIC with 4 µg/mL (2 µM) compound 1
  MICantibiotic + compound: 0.031 µg/mL
[2]; A. baumannii 92247 (colistin-resistant)
  MICantibiotic: 4 µg/mL
[2]; A. baumannii 92247 (colistin-resistant), of antibiotic by 4 µg/mL (2 µM) compound 1
  Potentiation: 128 fold
[2]; A. baumannii 110193, antibiotic + compound 1
  Interpretation: Synergy (FIC indices of ≤0.5 is synergistic)
[2]; A. baumannii 110193, antibiotic MIC with 4 µg/mL (2 µM) compound 1
  MICantibiotic + compound: 0.004 µg/mL
[2]; A. baumannii 110193
  MICantibiotic: 4 µg/mL
[2]; A. baumannii 110193, of antibiotic by 4 µg/mL (2 µM) compound 1
  Potentiation: ≥1024-fold
[2]; A. baumannii AB027, antibiotic + compound 1
  Interpretation: Synergy (FIC indices of ≤0.5 is synergistic)
[2]; A. baumannii AB027, antibiotic MIC with 4 µg/mL (2 µM) compound 1
  MICantibiotic + compound: 0.004 µg/mL
[2]; A. baumannii AB027
  MICantibiotic: 2 µg/mL
[2]; A. baumannii AB027, of antibiotic by 4 µg/mL (2 µM) compound 1
  Potentiation: ≥512-fold
[2]; A. baumannii AB031, antibiotic + compound 1
  Interpretation: Synergy (FIC indices of ≤0.5 is synergistic)
[2]; A. baumannii AB031, antibiotic MIC with 4 µg/mL (2 µM) compound 1
  MICantibiotic + compound: 0.004 µg/mL
[2]; A. baumannii AB031
  MICantibiotic: 4 µg/mL
[2]; A. baumannii AB031, of antibiotic by 4 µg/mL (2 µM) compound 1
  Potentiation: ≥1024-fold
[2]; A. baumannii ATCC 17978, antibiotic + compound 1
  Interpretation: Synergy (FIC indices of ≤0.5 is synergistic)
[2]; A. baumannii ATCC 17978, antibiotic + compound 3
  Interpretation: Additive (0.5 < × ≤ 4 is additive)
[2]; A. baumannii ATCC 17978, antibiotic MIC with 8 µg/mL (5 µM) compound 3
  MICantibiotic + compound: 2 µg/mL
[2]; A. baumannii ATCC 17978, antibiotic MIC with ¼ MIC (≤5 µM) of compound 1
  MICantibiotic + compound: 0.016 µg/mL
[2]; A. baumannii ATCC 17978
  MICantibiotic: 8 µg/mL and 4 µg/mL
[2]; A. baumannii ATCC 17978, of antibiotic by 8 µg/mL (5 µM) compound 3
  Potentiation: 2 fold
[2]; A. baumannii ATCC 17978, of antibiotic by ¼ MIC (≤5 µM) of compound 1
  Potentiation: ≥512-fold
[3]; [10]
  Interpretation: Synergy (FIC indices of ≤0.5 is synergistic)
  MICantibiotic + compound: 0.5 µg/mL
  MICantibiotic: >16 µg/mL
  Potentiation: ≥32-fold
[3]; [11]
  Interpretation: Synergy (FIC indices of ≤0.5 is synergistic)
  MICantibiotic + compound: 0.5 µg/mL
  MICantibiotic: 8 µg/mL
  Potentiation: 16 fold
[4]; [12]
  Interpretation: Synergy (FIC indices of ≤0.5 is synergistic)
  MICantibiotic + compound: 2 µg/mL
  MICantibiotic: 32 µg/mL
  Potentiation: 16 fold
[4]; K. pneumoniae 116381
  Interpretation: Synergy (FIC indices of ≤0.5 is synergistic)
  MICantibiotic + compound: 0.25 µg/mL
  MICantibiotic: >256 µg/mL
  Potentiation: ≥2048-fold
[5]; antibiotic + compound 1
  Interpretation: Synergy (FIC indices of ≤0.5 is synergistic)
[5]; antibiotic MIC with 8 µg/mL (5 µM) compound 1
  MICantibiotic + compound: 1 µg/mL
[5]; antibiotic alone
  MICantibiotic: >4 µg/mL
[5]; of antibiotic by 8 µg/mL (5 µM) compound 1
  Potentiation: ≥8-fold
[6]; [13]
  Potentiation: 1 fold
[6]; rifampicin + compound 1
  Interpretation: Additive (0.5 < × ≤ 4 is additive)
[6]; [14]
  MICantibiotic + compound: 0.5 µg/mL
[6]; rifampicin alone
  MICantibiotic: 0.5 µg/mL
[7]; [13]
  Potentiation: 1 fold
[7]; rifampicin + compound 1
  Interpretation: Additive (0.5 < × ≤ 4 is additive)
[7]; [14]
  MICantibiotic + compound: 0.031 µg/mL
[7]; rifampicin alone
  MICantibiotic: 0.031 µg/mL
[8]; [13]
  Potentiation: 1 fold
[8]; rifampicin + compound 1
  Interpretation: Additive (0.5 < × ≤ 4 is additive)
[8]; [14]
  MICantibiotic + compound: 512 µg/mL
[8]; rifampicin alone
  MICantibiotic: 512 µg/mL
[9]
  clinical isolates in which the antibiotic was synergized by compound 1: 13 (93%) strains
